According to patent US8748497B2, “Optimized fluorocarbon emulsions for blood substitutes and other therapeutic uses” (Alliance Pharmaceutical Corp., priority 2006, dated 2014):
Read-outs that look alike come from different tables or passages of the source.

Experiments:
[1] = pharmacokinetics in subjects undergoing CABG surgery with hypothermic CPB; type: in vivo, human; conditions: human, whole blood, other: directly into the bypass oxygenator, 2.7 g PFC/kg
Protocol: The pharmacokinetics of PFOB and PFDB were determined after the administration of the fluorocarbon formulation taught in Example VI to human subjects undergoing coronary artery bypass grafting or CABG surgery with hypothermic cardiopulmonary bypass. In group 1 and in group 2, human subjects received the fluorocarbon emulsion (2.7 g PFC/kg) as taught in Example VI directly into the bypass oxygenator after being put on bypass but before cooling was begun. In group 4, subjects received 2.7 g PFC/kg of the fluorocarbon emulsion of Example VI directly into the bypass oxygenator either prior to aortic cannulation or after being put on bypass, but before cooling was begun.

[2] = tissue distribution after single intravenous administration of the emulsion of Ex. VI, GC headspace; type: in vivo, Sprague Dawley rats
Excerpt: (§1) This study was designed to assess the pharmokinetics and tissue distribution of PFOB and PFDB following a single intravenous administration of the emulsion of Ex. VI at various time intervals at dose levels of 1.8 and 3.6 g PFC/k in male and female Sprague Daley rats, aged 7-9 weeks, weight between 190-267 grams. For pharmacokinetics, 160 rats were divided into 20 groups (N=4 rats/sex/dose/time interval) and for tissue distribution, 156 rats were divided into 26 groups (n=3 rats/sex/dose/time interval). The time intervals for pharmacokinetics blood sampling were 0.083, 0.5, 1, 3, 6, 12, 36, 48, 72 and 96 hours. The time intervals for tissue sampling was predose, 24 hours, 1, 2, 4, 8, 13, 17, 21, 26, 39, 52 and 72 weeks.
26 groups (N=3 rats/sex/group). Prior to euthanasia, body weights were recorded. At designated times (see below), rats were anesthetized with METOFANE® and esanguinated via the abdominal artery. Blood was collected into syringes containing EDTA and transferred into sealed plastic containers for storage at approximately −20° C. until analyzed. Resultant data were included in the determination of pharmacokinetic parameters. The following tissues were collected from each rat and placed in sealed containers and stored frozen at −20° C. Prior to freezing, blood and tissue samples were processed for analysis. PFOB and PFDB were quantified in blood and tissues using a GC headspace method validated by Oread. The method was validated in the liver and then cross validated to all other tissues, blood, and serum. The tissues collected and analyzed include heart, lungs, abdominal fat, spleen, liver, mesenteric lymph nodes, kidneys, adrenals, testes, ovaries, uterus, whole brain, eyes, skeletal muscle, femoral bone marrow, and gastrointestinal tract.
The concentration of PFOB and PFDB was determined in the tissues in both sexes at 12 time points. For the males, this was a total of 360 individual results including blood. There were 24 additional results for the female.

[3] = pharmacokinetics in blood after single intravenous administration of the emulsion of Ex. VI; type: in vivo, Sprague Dawley rats; conditions: for MRT last / half-life: Sprague-Dawley, rat; for MRT last: read-out: MRT(0-last); for Vd: terminal phase; for half-life: iv, read-out: T1/2 (converted)
Excerpt: as §1
Six pharmacokinetic parameters were determined following a single intravenous dose of 1.8 gPFC/kg or 3.6 g PFC/kg in both the male and female rats as shown in the tables below.

[4] = in vivo; cited from earlier work
[5] = pharmacokinetics in subjects undergoing noncardiac surgical procedures; type: in vivo, human; conditions: human, whole blood, noncardiac surgery; for clearance: read-out: CL (whole blood clearance) (converted); for Cmax: read-out: Cmax (maximum whole blood concentration); for half-life: read-out: T1/2 (elimination half-life) (converted)
Protocol: The pharmacokinetics of PFOB and PFDB were determined after the administration of the fluorocarbon emulsion of Example VI to subjects undergoing total hip replacement or spinal surgery or a variety of urologic and gynaecologic procedures including radical retropubic prostatectomy, radical hysterectomy, cystectomy and combined procedures. Human subjects in one study received either 0.9 g PFC/kg or 1.8 g PFC/kg of the fluorocarbon formulation of Example VI and those in a second study received 1.8 g PFC/kg of the fluorocarbon formulation of Example VI.

[6] = Phase 1 pharmacokinetics in healthy human volunteers; type: in vivo; conditions: for AUC(0-t) / half-life / Cmax: human, blood; for AUC(0-t) / half-life: intravenous; for AUC(0-t): read-out: AUC (0-336); for half-life: read-out: t1/2. 12 h (initial elimination half-life within the first 12 h post dose) (converted); for Cmax: iv, healthy volunteers
Protocol: Two randomised, controlled, double-blind, parallel group, Phase 1 studies were conducted in healthy human patients with the fluorocarbon emulsion made according to Example VI. Blood and expired air samples were analysed for PFOB and PFDB after a single intravenous dose of 1.2 or 1.8 g PFC/kg of the fluorocarbon emulsion of Example VI in healthy human volunteers to determine pharmacokinetics. Blood samples were collected up to 336 hours post-dosing.

[7] = female rats, 1.8 g PFC/kg, 24 hours
[8] = female rats, 3.6 g PFC/kg, 24 hours
[9] = male rats, 1.8 g PFC/kg, 24 hours
[10] = female rats, 1.8 g PFC/kg single iv, blood
[11] = female rats, 3.6 g PFC/kg single iv, blood
[12] = male rats, 1.8 g PFC/kg single iv, blood
[13] = male rats, 3.6 g PFC/kg single iv, blood
[14] = 1.2 g PFC/kg, Table VII, 1.2 g PFC/kg
[15] = 1.2 g PFC/kg, Table VIII, 1.2 g PFC/kg
[16] = 1.8 g PFC/kg, Table VII, 1.8 g PFC/kg
[17] = 1.8 g PFC/kg, Table VIII, 1.8 g PFC/kg

AUC(0-inf) [1]: 16200 µg·h/mL | clearance ([1]; read-out: CL (whole blood clearance) (converted)): 0.113 mL/min/kg | Cmax ([1]; read-out: Cmax (maximum whole blood concentration)): 1030 µg/mL | half-life ([1]; read-out: T1/2 (elimination half-life) (converted)): 10.8 ± 4.46 h | concentration in the spleen and liver ([2]; 24 hours, males 1.8 g PFC/kg): above 1 mg/g | concentration at 24 h ([2]; Sprague-Dawley, rat, intravenous, 24 hr, all tissues, both sexes and both doses, read-out: absolute concentration in tissues): > 1000 ng/g | percent of dose in liver [2, 7]: ~86% | percent of dose in spleen [2, 7]: approximately 14% | percent of dose in liver [2, 8]: approximately 62% | percent of dose in spleen [2, 8]: approximately 8% | concentration in the lymph nodes, spleen, liver and bone marrow ([2]; females 3.6 g PFC/kg): above 1 mg/g | percent of dose in liver [2, 9]: ~85% | percent of dose in spleen [2, 9]: approximately 15% | percent of dose in spleen ([2]; male rats, 3.6 g PFC/kg): approximately 11% | percent of dose in liver ([2]; male rats, 3.6 g PFC/kg, 24 hours): ~69% | concentration in the spleen, liver, and bone marrow ([2]; males 3.6 PFC/kg): above 1 mg/g | MRT last ([3]; 1.8 g/kg, female rats, 1.8 g PFC/kg single iv, blood): 113 h | MRT last ([3]; 1.8 g/kg, male rats, 1.8 g PFC/kg single iv, blood): 332 h | MRT last ([3]; 3.6 g/kg, female rats, 3.6 g PFC/kg single iv, blood): 438 h | MRT last ([3]; 3.6 g/kg, male rats, 3.6 g PFC/kg single iv, blood): 485 h | AUC(o-last) [3, 10]: 6.86 mg·h/g | AUC(o-∞) [3, 10]: 7.54 mg·h/g | Cl [3, 10]: 238.76 g/h/kg | T1/2 ([3]; female rats, 1.8 g PFC/kg single iv, blood, last 3 or 4 data points): 199.851 days | Vd ([3]; female rats, 1.8 g PFC/kg single iv): 1652163 g/kg | AUC(o-last) [3, 11]: 21.99 mg·h/g | AUC(o-∞) [3, 11]: 22.87 mg·h/g | Cl [3, 11]: 157.39 g/h/kg | Vd ([3]; female rats, 3.6 g PFC/kg single iv): 1728719 g/kg | half-life ([3]; female, blood, 1.8 g/kg, female rats, 1.8 g PFC/kg single iv, blood, last 3 or 4 data points): ~200 days | half-life ([3]; female, blood, 3.6 g/kg, female rats, 3.6 g PFC/kg single iv, blood, last 3 or 4 data points): ~317 days | AUC(o-last) [3, 12]: 6.88 mg·h/g | AUC(o-∞) [3, 12]: 10.65 mg·h/g | Cl [3, 12]: 169.05 g/h/kg | Vd ([3]; male rats, 1.8 g PFC/kg single iv): 6128576 g/kg | AUC(o-last) [3, 13]: 24.67 mg·h/g | AUC(o-∞) [3, 13]: 27.62 mg·h/g | Cl [3, 13]: 130.34 g/h/kg | Vd ([3]; male rats, 3.6 g PFC/kg single iv): 2359442 g/kg | half-life ([3]; male, blood, 1.8 g/kg, male rats, 1.8 g PFC/kg single iv, blood, last 3 or 4 data points): ~1050 days | half-life ([3]; male, blood, 3.6 g/kg, male rats, 3.6 g PFC/kg single iv, blood, last 3 or 4 data points): ~523 days | AUC(0-inf) ([5]; 0.9 g PFC/kg): 736 ± 483 µg·h/mL | clearance ([5]; 0.9 g PFC/kg): 0.973 mL/min/kg | Cmax ([5]; 0.9 g PFC/kg): 284 ± 92.7 µg/mL | half-life ([5]; 0.9 g PFC/kg): 2.73 ± 1.32 h | AUC(0-inf) ([5]; 1.8 g PFC/kg): 2950 µg·h/mL | clearance ([5]; 1.8 g PFC/kg): 0.595 mL/min/kg | Cmax ([5]; 1.8 g PFC/kg): 620 ± 158 µg/mL | half-life ([5]; 1.8 g PFC/kg): 5.56 ± 4.81 h | t1/2. 12 h (initial elimination half-life within the first 12 h post dose) ([6]; Table VIII, 1.2 g PFC/kg): 13.6 h | AUC(0-t) [6, 14]: 6640 µg·h/mL | half-life [6, 14]: 13.7 ± 3.6 h | AUC(0-t) [6, 15]: 4630 µg·h/mL | half-life [6, 15]: 7.35 h | AUC(0-t) [6, 16]: 16300 µg·h/mL | half-life [6, 16]: 18.7 h | AUC(0-t) [6, 17]: 11200 µg·h/mL | half-life [6, 17]: 12.6 h | Cmax ([6]; 1.2 g PFC/kg, Table VII, 1.2 g PFC/kg single iv): 540 ± 125 µg/mL | Cmax ([6]; 1.2 g PFC/kg, Table VIII, 1.2 g PFC/kg single iv): 670 ± 420 µg/mL | Cmax ([6]; 1.8 g PFC/kg, Table VII, 1.8 g PFC/kg single iv): 978 ± 499 µg/mL | Cmax ([6]; 1.8 g PFC/kg, Table VIII, 1.8 g PFC/kg single iv): 884 ± 196 µg/mL
SMILES: FC(F)(F)C(F)(F)C(F)(F)C(F)(F)C(F)(F)C(F)(F)C(F)(F)C(F)(F)C(F)(F)C(F)(F)Br [PFDB, perfluorodecyl bromide]
half-life in the RES [4]: 552 h
